{"source": "patent US20080193566A1", "about": "“Use of high dose concentrations of gaseous nitric oxide” (priority 2007, published 2008)", "key": {"[1]": {"system": "non-small cell lung cancer (NSCLC) cells lines", "assay": "MTS cell proliferation assay, 25,000 ppm gNO (Example 4), NSCLC cell line panel", "format": "cell-based, human", "conditions": "between 6 and 9 minutes, all five cancer cell lines", "source_text": "The purpose of this example is to illustrate the tumorcidal activity of high-dosage gNO. We examined the cellular sensitivity to 25,000 ppm of gNO on 5 non-small cell lung cancer (NSCLC) cells lines by an MTS cell proliferation assay.\nHuman lung cancer cell lines A549, NCI-H23, NCI-H460, HTB-58, H2170, and H441 (commercially available from American Type Culture Collection (“ATCC”), Manassas, Va.) were maintained in culture medium recommended by ATCC. All media were supplemented with 1% penicillin/streptomycin and 10% fetal bovine serum (commercially available from Invitrogen Gibco-BRL, Burlington, Ontario, Canada). […]\nAfter 24 hours, the A549, NCI-H23, NCI-H460, HTB-58, H2170 and H441 cells were treated with 25,000 ppm gNO or air (control) for 1 minute, 3 minutes, 6 minutes, 9 minutes, 10 minutes, 20 minutes, and 30 minutes. Immediately following treatment, the viability of the cells was determined using a colorimetric MTS (3-(4,5-dimethylthiazol-2-yl)-5-(3-carboxymethoxyphenyl)-2-(4-sulfophenyl)-2H-tetrazolium, inner salt) cell proliferation assay (commercially available as the CellTiter 96® Aqueous One Solution Cell Proliferation Assay (MTS) from Promega, Madison, Wis., USA) according to the manufacturer's protocol. […] Absorbance was measured at 490 nm for each well using a micro-plate reader (commercially available from Dynex Technologies, Chantilly, Va., USA). […]"}, "[2]": {"assay": "Viability after 25,000 ppm gNO (Example 5), NHLF", "format": "cell-based", "conditions": "human, normal human lung fibroblast cells (NHLF)", "description": "(§1) The purpose of this example is to illustrate the effects on normal human cell lines compared to the effects on cancerous cell lines of high-dosage gNO.\n(§2) The above study was repeated. In addition to the A549, NCI-H23, NCI-H460, HTB-58, H2170 and H441 cells, four other cell lines were added—normal human bronchial epithelial cells (NHBE), normal human endothelial lung vascular cells (NHVE), normal human fibroblast cells (NHLF), and a squamous lung cancer cell line (H2170).\n(§3) FIG. 8, embodiments A, B, C, and D, illustrate the viability of thee three normal human cell lines and one cancerous cell line to which 25,000 ppm gNO is administered for up to 15 minutes. The NHBE cells (embodiment A), experienced a decrease in viability after only 6 minutes of 25,000 ppm gNO administration, resulting in a viability of less than 10%. The NHVE cells (embodiment B) experienced a decrease in viability after only 6 minutes of 25,000 ppm gNO administration, resulting in a viability of less than 10%. The NHLF cells (embodiment C) also experienced a decrease in viability after only 6 minutes of 25,000 ppm gNO administration, resulting in a viability of about 30%. The H2170 cancerous cells experienced a dramatic decrease in viability after only 6 minutes of 25,000 ppm gNO administration, resulting in a viability of less than 10%."}, "[3]": {"assay": "Viability after 25,000 ppm gNO (Example 5), NHVE", "format": "cell-based", "conditions": "human, normal human endothelial lung vascular cells (NHVE)", "description": "as §1, §2, §3"}, "[4]": {"system": "A549-epithelial lung carcinoma cells", "assay": "MTS proliferation assay, A549 cells exposed to 200 or 350 ppm gNO (Example 1)", "format": "cell-based, human", "set-up": "MTS assay reading, Average / MTS assay reading, Corrected Average: unit not given here", "conditions": "for MTS assay reading, Corrected Average: blank subtracted; for Survival: vs air control", "description": "The purpose of this example is to illustrate the effect of continuous gaseous nitric oxide (gNO) 200 ppm and 350 ppm compared to air (control) on the survival of a representative line of cancer cells. Cancer cell lines (A549-epithelial lung carcinoma cells and H460-epithelial metastatic; large cell lung cancer cells) were prepared in F12 medium and suspended in six 96-well plates (3 treatment and 3 controls). […] The plates then were removed and cell viability assessed by an MTS proliferation assay.\n(§4) When exposed to 350 ppm of gNO, however, cancer cell survival rates decrease dramatically."}, "[5]": {"system": "H460-epithelial metastatic; large cell lung cancer cells", "assay": "MTS proliferation assay, H460 cells exposed to 350 ppm gNO (Example 1)", "format": "cell-based, human", "conditions": "350 ppm NO, 2 hours, RPMI medium", "source_text": "The purpose of this example is to illustrate the effect of continuous gaseous nitric oxide (gNO) 200 ppm and 350 ppm compared to air (control) on the survival of a representative line of cancer cells. […] […] The plates then were removed and cell viability assessed by an MTS proliferation assay.\nas §4"}, "Staphylococcus aureus": {"system": "Staphylococcus aureus", "assay": "S. aureus on blood agar plates exposed to 25,000 ppm gNO (Example 2)", "format": "cell-based", "source_text": "The purpose of this example is to observe the possibility of a novel bactericidal high dose (25,000 ppm) effect of gaseous nitric oxide (gNO) on an ATCC strain of Staphylococcous aureus plated on a blood agar media and determine a time effect of this dosage.\nA closed environment treatment chamber was used (see, “A direct nitric oxide gas delivery system for bacterial and mammalian cell cultures,” A. Ghaffari, D. H. Neil, A. Ardakani, J. Road, A. Ghahary, C. C. Miller. Nitric Oxide 12(3):129-140, 2005, herein incorporated by reference in its entirety). The following steps were performed: • 1. Calibrated the AeroNOx analyzer as per standard procedure. • 2. Calibrated the closed environment treatment chamber as per standard procedure. • 3. In a 50 mL tube, known Staphylococcus aureus bacteria in 10 mL Nutrient Broth was grown overnight or for about 12 hours in a shaker incubator. • 4. Measured optical density of grown Staphylococcus aureus using a spectrophotometer set at 600 nm. Used original nutrient broth as a blank. O.D. should be 1.0±10%. • 5. Turned on closed environment treatment chamber. • 6. Labeled three plates: Air, NO+1 minute, NO+3 minutes. • 7. Immersed a sterile cotton swab into the bacterial mixture in the 50 mL tube and shaked off excess liquid. • 8. Swiped one plate entirely in two directions with the swab. • 9. […] After incubation, recorded results with digital pictures. • 14. […]"}, "cancer cell lines": {"system": "cancer cell lines", "assay": "Viability after 25,000 ppm gNO (Example 5, repeat), cancer cell line panel", "format": "cell-based, human", "conditions": "between about 6 and about 9 minutes, all five cancer cell lines, repeat study", "description": "as §1, §2"}, "[6]": {"assay": "Viability after 25,000 ppm gNO (Example 5), NHBE", "format": "cell-based", "conditions": "human, normal human bronchial epithelial cells (NHBE)", "description": "as §1, §2, §3"}, "[7]": {"conditions": "200 ppm NO, 1 hour, HBSS medium"}, "[8]": {"conditions": "200 ppm NO, 2.5 hours, F12 medium"}, "[9]": {"conditions": "200 ppm NO, 2.5 hours, HBSS medium"}, "[10]": {"conditions": "200 ppm NO, 3.5 hours, F12 medium"}, "[11]": {"conditions": "200 ppm NO, 3.5 hours, HBSS medium"}, "[12]": {"conditions": "350 ppm NO, 2 hours, F12 medium"}}, "data": [{"compound": "[N]=O", "note": "[gNO, nitric oxide]", "values": [{"measurement": "cells killed", "setting": "[1]", "value": "75-95%"}, {"measurement": "viability at 6 min, 25000 ppm", "setting": "[2]; 6 minutes", "value": "~30", "unit": "%"}, {"measurement": "viability at 15 min, 25000 ppm", "setting": "[2]; after 15 minutes of exposure", "value": 30, "unit": "%"}, {"measurement": "viability at 6 min, 25000 ppm", "setting": "[3]", "value": "< 10", "unit": "%"}, {"measurement": "MTS assay reading, Average", "setting": "[4]; 200 ppm NO, 1 hour, F12 medium", "value": 0.852}, {"measurement": "MTS assay reading, Corrected Average", "setting": "[4]; 200 ppm NO, 1 hour, F12 medium", "value": 0.621}, {"measurement": "Survival", "setting": "[4]; 200 ppm NO, 1 hour, F12 medium", "value": "about 92%"}, {"measurement": "MTS assay reading, Average", "setting": "[4]; [7]", "value": 0.06}, {"measurement": "MTS assay reading, Corrected Average", "setting": "[4]; [7]", "value": 0}, {"measurement": "MTS assay reading, Average", "setting": "[4]; [8]", "value": 1.276}, {"measurement": "MTS assay reading, Corrected Average", "setting": "[4]; [8]", "value": 0.918}, {"measurement": "Survival", "setting": "[4]; [8]", "value": "about 90%"}, {"measurement": "MTS assay reading, Average", "setting": "[4]; [9]", "value": 0.06}, {"measurement": "MTS assay reading, Corrected Average", "setting": "[4]; [9]", "value": 0}, {"measurement": "MTS assay reading, Average", "setting": "[4]; [10]", "value": 1.529}, {"measurement": "MTS assay reading, Corrected Average", "setting": "[4]; [10]", "value": 1.059}, {"measurement": "Survival", "setting": "[4]; [10]", "value": "about 87%"}, {"measurement": "MTS assay reading, Average", "setting": "[4]; [11]", "value": 0.061}, {"measurement": "MTS assay reading, Corrected Average", "setting": "[4]; [11]", "value": 0}, {"measurement": "MTS assay reading, Average", "setting": "[4]; [12]", "value": 0.110}, {"measurement": "MTS assay reading, Corrected Average", "setting": "[4]; [12]", "value": 0.009}, {"measurement": "MTS assay reading, Average", "setting": "[5]", "value": 0.158}, {"measurement": "MTS assay reading, Corrected Average", "setting": "[5]; blank subtracted", "value": 0.037}, {"measurement": "plate appearance after incubation (FIG. 4)", "setting": "Staphylococcus aureus; 1 minute of exposure", "value": "still shows signs of the S. aureus"}, {"measurement": "plate appearance after incubation (FIG. 5)", "setting": "Staphylococcus aureus; 3 minutes of exposure", "value": "no signs of the S. aureus"}, {"measurement": "cells killed", "setting": "cancer cell lines", "value": "75-95%"}, {"measurement": "viability at 6 min, 25000 ppm", "setting": "[6]", "value": "< 10", "unit": "%"}]}]}
